Calls of active or inactive are those of the source. No cut-off for these calls is given here.
Experiments:
Escherichia coli [1] = experiment: Antibacterial activity against Escherichia coli TP1 harboring pBR322 carrying TEM-12 assessed as inhibition of bacterial growth at <=16 ug/ml after 18 hrs; assay type: functional, organism-based
Escherichia coli [2] = experiment: Antibacterial activity against Escherichia coli TP1 harboring pBR322 carrying TEM-10 assessed as inhibition of bacterial growth at >64 ug/ml after 18 hrs; assay type: functional, organism-based
Escherichia coli [3] = test system: Escherichia coli
Description: Ratio of Kcat to Km for Escherichia coli Beta-Lactamase TEM-12

Structure (SMILES) | inhibition (Escherichia coli [1]) | inhibition (Escherichia coli [2]) | kcat/Km (Escherichia coli [3]) [×10⁷ /M/s]
CC(C)(O/N=C(\C(=O)N[C@@H]1C(=O)N2C(C(=O)[O-])=C(C[n+]3ccccc3)CS[C@H]12)c1csc(N)n1)C(=O)O | inactive | Active | –
CC1(C)S[C@@H]2[C@H](NC(=O)[C@H](N)c3ccccc3)C(=O)N2[C@H]1C(=O)O | – | – | 4.2

From ChEMBL document CHEMBL1275444, “Fitness trade-offs in blaTEM evolution” (2008)
